For assay [1], the target named is T1, human CB2 receptor (Homo sapiens (Human), UniProt P34972). In words: CB2 receptor binding assay ([3H]CP-55,940 displacement, HEK-293 membranes).
For assay [2], the target named is human recombinant CB1R (Homo sapiens (Human), UniProt P21554). In words: CB1 receptor binding assay ([3H]CP-55,940 displacement, HEK-293 membranes). An outline of the steps:
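Membranes from HEK-293 cells expressing human recombinant CB1R or CB2R were incubated with [3H]CP-55,940 and compound for 120 min at 37 °C in duplicate. The CB2R incubation buffer was 50 mM Tris-HCl, 5 mM MgCl2, 1 mM CaCl2, 0.2% BSA, pH 7.4. Bound radioactivity was filtered and counted, and IC50 was converted to Ki by Cheng–Prusoff.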

Assay [3] has as its target T1, human CB2 receptor. The experiment in a line: CB2 receptor cAMP assay (DiscoverX HitHunter cAMP XS+). It counts as cell-based. The following applies: for Emax: CHO-K1, read-out: Max Stimulation %. The procedure: cAMP Hunter CHO-K-1 cell lines expressing human CB2 receptor (Eurofins) were expanded from freezer stocks according to standard procedures. Cells were seeded in a total volume of 20 μL into white walled, 384-well microplates and incubated at 37° C. for the appropriate time prior to testing. cAMP modulation in agonist, inverse agonist or antagonist format was determined using the DiscoverX HitHunter cAMP XS+ assay (Eurofins). For agonist determination, cells were incubated with sample in the presence of EC80 forskolin to induce response. Media was aspirated from cells and replaced with 15 μL 2:1 HBSS/10 mM Hepes: cAMP XS+Ab reagent. Intermediate dilution of sample stocks was performed to generate 4× sample in assay buffer containing 4× EC80 forskolin. 5 μL of 4× sample was added to cells and incubated at 37° C. or room temperature for 30 or 60 minutes. Final assay vehicle concentration was 1%. For inverse agonist determination, cells were preincubated with sample in the presence of EC20 forskolin. Media was aspirated from cells and replaced with 15 μL, 2:1 HBSS/10 mM Hepes: cAMP XS+Ab reagent. Intermediate dilution of sample stocks was performed to generate 4× sample in assay buffer containing 4× EC20 forskolin. 5 μL of 4× sample was added to cells and incubated at 37° C. or room temperature for 30 or 60 minutes. Final assay vehicle concentration was 1%. For antagonist determination, cells were pre-incubated with sample followed by agonist challenge at the EC80 concentration. Media was aspirated from cells and replaced with 10 μL 1:1 HBSS/Hepes: cAMP XS+Ab reagent. 5 μL of 4× compound was added to the cells and incubated at 37° C. or room temperature for 30 minutes. 5 μL of 4× EC80 agonist was added to cells and incubated at 37° C. or room temperature for 30 or 60 minutes. EC80 forksolin was included. After appropriate compound incubation, assay signal was generated through incubation with 20 μL cAMP XS+ED/CL lysis cocktail for one hour followed by incubation with 20 μL, cAMP XS+EA reagent for three hours at room temperature. Microplates were read following signal generation with a PerkinElmer Envision instrument for chemiluminescent signal detection. Compound activity was analyzed using CBIS data analysis suite (ChemInnovation, CA). For agonist mode assay, percentage activity is calculated using the following formula: % Activity=100%×(1−(mean RLU of test sample−mean RLU of MAX control)/(mean RLU of vehicle control−mean RLU of MAX control)). For inverse agonist mode assay, percentage activity is calculated using the following formula: % Inverse Agonist Activity=100%×((mean RLU of test sample−mean RLU of EC20 forskolin)/(mean RLU of forskolin positive control−mean RLU of EC20 control)). For antagonist mode assay, percentage inhibition is calculated using the following formula: % Inhibition=100%×(mean RLU of test sample−mean RLU of EC80 control)/(mean RLU of forskolin positive control−mean RLU of EC80 control). Data are analyzed and IC50 is calculated using GraphPad Prism 5 and the model “log(inhibitor) vs. response—Variable slope”.

The mark [4] stands for this setting: membranes of HEK-293 cells with human recombinant CB2R, [3H]CP-55,940, read-out: CB2 IC50.
Where [5] appears, read: membranes of HEK-293 cells with human recombinant CB1R, [3H]CP-55,940, read-out: CB1 IC50.
Where [6] appears, read: membranes of HEK-293 cells with human recombinant CB2R, [3H]CP-55,940, class symbols, read-out: CB2 IC50.
Setting [7] is: membranes of HEK-293 cells with human recombinant CB1R, [3H]CP-55,940, class symbols, read-out: CB1 IC50.

Read-outs that look alike come from different tables or passages of the source.

A word on the IC50: it is the point on the concentration scale where inhibition reaches its midpoint.

human recombinant CB1R, sequence (P21554 whole entry): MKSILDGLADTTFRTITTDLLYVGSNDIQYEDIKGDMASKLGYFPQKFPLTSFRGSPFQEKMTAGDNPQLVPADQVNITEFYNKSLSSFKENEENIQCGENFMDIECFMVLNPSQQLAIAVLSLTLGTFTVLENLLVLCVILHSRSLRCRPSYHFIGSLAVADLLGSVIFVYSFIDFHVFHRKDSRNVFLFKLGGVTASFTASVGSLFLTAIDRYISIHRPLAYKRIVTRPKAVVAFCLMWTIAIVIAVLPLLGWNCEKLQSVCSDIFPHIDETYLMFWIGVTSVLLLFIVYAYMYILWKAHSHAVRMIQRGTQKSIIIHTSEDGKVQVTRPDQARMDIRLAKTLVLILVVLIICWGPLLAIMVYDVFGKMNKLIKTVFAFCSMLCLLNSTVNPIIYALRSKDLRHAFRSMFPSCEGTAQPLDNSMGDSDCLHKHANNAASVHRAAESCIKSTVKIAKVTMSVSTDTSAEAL
T1 sequence (P34972 whole entry): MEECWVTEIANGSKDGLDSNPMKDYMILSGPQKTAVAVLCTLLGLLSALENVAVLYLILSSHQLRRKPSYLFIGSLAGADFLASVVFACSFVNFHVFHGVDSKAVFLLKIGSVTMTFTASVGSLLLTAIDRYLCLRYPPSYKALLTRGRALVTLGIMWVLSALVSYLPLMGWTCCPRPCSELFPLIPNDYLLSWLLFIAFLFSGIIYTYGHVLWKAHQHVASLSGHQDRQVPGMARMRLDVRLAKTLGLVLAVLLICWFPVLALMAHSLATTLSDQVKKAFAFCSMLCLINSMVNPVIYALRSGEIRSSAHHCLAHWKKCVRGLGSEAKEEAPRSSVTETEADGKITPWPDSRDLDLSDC

For `COc1ccc(-c2cnc3c(c2)c(O)c(C(=O)NC24CC(C2)C4)c(=O)n3CCN2CCOCC2)cc1` [Compound 13, N-(bicyclo[1.1.1]pentan-1-yl)-4-hydroxy-6-(4-methoxyphenyl)-1-(2-morpholinoethyl)-2-oxo-1,2-dihydro-1,8-naphthyridine-3-carboxamide], the IC50 in assay [1] (setting [4]) is 17 nM; in assay [2] (setting [5]) it was greater than 10000 nM; in assay [3], 62 nM. For the same compound, the Emax in assay [3] is 67%.

Regarding `CC1CCC(NC(=O)c2cc3cc(-c4ccc(C#N)cn4)cnc3n(CCN3CCOCC3)c2=O)CC1` (stereo not drawn) [Compound 57, 6-(5-cyanopyridin-2-yl)-N-(4-methylcyclohexyl)-1-(2-morpholinoethyl)-2-oxo-1,2-dihydro-1,8-naphthyridine-3-carboxamide], the IC50 is less than 100 nM in assay [1] (setting [6]), greater than 1000 nM in assay [2] (setting [7]) and 8 nM in assay [3]. Also, the Emax in assay [3] amounted to 63%.

Regarding `N#Cc1ccc(-c2cnc3c(c2)cc(C(=O)NC2CC4(CCC4)C2)c(=O)n3Cc2ccc(F)cc2)nc1` [Compound 69, 6-(5-cyanopyridin-2-yl)-1-(4-fluorobenzyl)-2-oxo-N-(spiro[3.3]heptan-2-yl)-1,2-dihydro-1,8-naphthyridine-3-carboxamide], the values for the IC50 in assay [1] (setting [6]), in assay [2] (setting [7]) and in assay [3] were less than 100 nM, greater than 1000 nM and 21 nM, respectively. Moreover, the Emax in assay [3] turned out to be 79%.

Take `CC(NC(=O)c1cc2cc(-c3ccc(C#N)cc3)cnc2n(CCN2CCOCC2)c1=O)c1ccc(F)cc1` (stereo not drawn) [Compound 45, 6-(4-cyanophenyl)-N-(1-(4-fluorophenyl)ethyl)-1-(2-morpholinoethyl)-2-oxo-1,2-dihydro-1,8-naphthyridine-3-carboxamide]: the IC50 was less than 100 nM in assay [1] (setting [6]), greater than 1000 nM in assay [2] (setting [7]) and 15 nM in assay [3]. Besides, the Emax in assay [3] stood at 70%.

Consider `CC1CCC(NC(=O)c2c(O)c3cc(-c4ccc(C#N)cc4)cnc3n(CCN3CCOCC3)c2=O)CC1` (stereo not drawn) [Compound 16, 6-(4-cyanophenyl)-4-hydroxy-N-(4-methylcyclohexyl)-1-(2-morpholinoethyl)-2-oxo-1,2-dihydro-1,8-naphthyridine-3-carboxamide], for which, in assay [2] (setting [5]), the half-maximal inhibitory concentration (IC50) is greater than 10000 nM. In addition, the Emax in assay [3] stood at 30%.

On to `O=C(NC1CC2(CCC2)C1)c1cc2cc(-c3ccc(OC(F)F)cn3)cnc2n(CCN2CCOCC2)c1=O` [Compound 47, 6-(5-(difluoromethoxy)pyridin-2-yl)-1-(2-morpholinoethyl)-2-oxo-N-(spiro[3.3]heptan-2-yl)-1,2-dihydro-1,8-naphthyridine-3-carboxamide], for which the IC50 in assay [2] (setting [5]) was greater than 10000 nM. The Emax in assay [3] was found to be 48%.

Regarding `CC(NC(=O)c1cc2cc(-c3ccc(C#N)cn3)cnc2n(CCN2CCOCC2)c1=O)c1ccc(F)cc1` (stereo not drawn) [Compound 58, 6-(5-cyanopyridin-2-yl)-N-(1-(4-fluorophenyl)ethyl)-1-(2-morpholinoethyl)-2-oxo-1,2-dihydro-1,8-naphthyridine-3-carboxamide], the IC50 in assay [2] (setting [5]) is greater than 10000 nM. Also, the Emax in assay [3] is 77%.

For `O=C(NC1CCCCC1)c1c(O)c2cc(-c3ccc(F)cc3)cnc2n(CCN2CCOCC2)c1=O` [Compound 153, N-cyclohexyl-6-(4-fluorophenyl)-4-hydroxy-1-(2-morpholinoethyl)-2-oxo-1,2-dihydro-1,8-naphthyridine-3-carboxamide], the IC50 in assay [1] (setting [6]) is less than 100 nM; in assay [2] (setting [7]) it was greater than 1000 nM.

For `O=C(NC1(CO)CCCCC1)c1c(O)c2cccnc2n(CCN2CCOCC2)c1=O` [Compound 138, 4-hydroxy-N-[1-(hydroxymethyl)cyclohexyl]-1-(2-morpholinoethyl)-2-oxo-1,8-naphthyridine-3-carboxamide], the values for the IC50 in assay [1] and in assay [2] (setting [7]) were 100 to 999 nM and greater than 1000 nM, respectively.

Consider `O=C(NC1CC2(CCC2)C1)c1cc2cc(-c3ccc(F)cc3)cnc2n(Cc2ccccn2)c1=O` [Compound 106, 6-(4-fluorophenyl)-2-oxo-1-(pyridin-2-ylmethyl)-N-(spiro[3.3]heptan-2-yl)-1,2-dihydro-1,8-naphthyridine-3-carboxamide], for which the IC50 in assay [1] (setting [6]) is less than 100 nM; in assay [2] (setting [7]) it was greater than 1000 nM.

As for `O=C(NC1CC2(CCC2)C1)c1c(O)c2cccnc2n(Cc2ccc(F)cc2)c1=O` [Compound 134, 1-(4-fluorobenzyl)-4-hydroxy-2-oxo-N-(spiro[3.3]heptan-2-yl)-1,2-dihydro-1,8-naphthyridine-3-carboxamide], the IC50 in assay [1] was 100 to 999 nM; in assay [2] (setting [7]), greater than 1000 nM.

Take `COc1ccc(-c2cnc3c(c2)c(C)c(C(=O)NC2CCC(C)CC2)c(=O)n3Cc2ccc(F)cc2)cc1` (stereo not drawn) [Compound 80, 1-(4-fluorobenzyl)-6-(4-methoxyphenyl)-4-methyl-N-(4-methylcyclohexyl)-2-oxo-1,2-dihydro-1,8-naphthyridine-3-carboxamide]: the IC50 is 100 to 999 nM in assay [1] and greater than 1000 nM in assay [2] (setting [7]).

As to `O=C(NC1CC2(CCC2)C1)c1c(O)c2cc(-c3ccc(F)cc3)ccc2n(CCN2CCOCC2)c1=O` [Compound 23, 6-(4-fluorophenyl)-4-hydroxy-1-(2-morpholinoethyl)-2-oxo-N-(spiro[3.3]heptan-2-yl)-1,2-dihydroquinoline-3-carboxamide], the half-maximal inhibitory concentration (IC50) in assay [1] (setting [6]) is less than 100 nM; in assay [2], 100 to 999 nM.

For `C[C@H]1C[C@H](NC(=O)c2c(O)c3cc(-c4ccc(F)cc4)cnc3n(CCN3CCOCC3)c2=O)C1` [Compound 114, 6-(4-fluorophenyl)-4-hydroxy-N-((1r, 3r)-3-methylcyclobutyl)-1-(2-morpholinoethyl)-2-oxo-1,2-dihydro-1,8-naphthyridine-3-carboxamide], the IC50 in assay [1] was 100 to 999 nM; in assay [2] (setting [7]) it was greater than 1000 nM.

For the compound `C[C@@H](NC(=O)c1cc2cc(Br)cnc2n(Cc2ccc(F)cc2)c1=O)c1ccc(C#N)cc1` [Compound 91, (R)-6-bromo-N-(1-(4-cyanophenyl)ethyl)-1-(4-fluorobenzyl)-2-oxo-1,2-dihydro-1,8-naphthyridine-3-carboxamide], the half-maximal inhibitory concentration (IC50) in assay [1] (setting [4]) is 7 nM; in assay [2] (setting [5]), greater than 10000 nM.

For `N#Cc1ccc(C2(NC(=O)c3cc4cc(Br)cnc4n(Cc4ccc(F)cc4)c3=O)CC2)cc1` [Compound 92, 6-bromo-N-(1-(4-cyanophenyl)cyclopropyl)-1-(4-fluorobenzyl)-2-oxo-1,2-dihydro-1,8-naphthyridine-3-carboxamide], the IC50 in assay [1] (setting [6]) was less than 100 nM. For the same compound, in assay [3], 3.6 nM corresponded to half-maximal inhibition (IC50) and the Emax worked out at 108%.

Consider `C[C@H]1C[C@@H](NC(=O)c2c(O)c3cc(-c4ccc(F)cc4)cnc3n(CCN3CCOCC3)c2=O)C1` [Compound 113, 6-(4-fluorophenyl)-4-hydroxy-N-((1s, 3s)-3-methylcyclobutyl)-1-(2-morpholinoethyl)-2-oxo-1,2-dihydro-1,8-naphthyridine-3-carboxamide], for which the IC50 in assay [1] (setting [6]) and in assay [2] (setting [7]) was greater than 1000 nM in each case.

As for `O=C(NC12CC(C1)C2)c1c(O)c2cc(C3CCC3)cnc2n(CCN2CCOCC2)c1=O` [Compound 127, N-(bicyclo[1.1.1]pentan-1-yl)-6-cyclobutyl-4-hydroxy-1-(2-morpholinoethyl)-2-oxo-1,2-dihydro-1,8-naphthyridine-3-carboxamide], the IC50 in assay [1] (setting [6]) and in assay [2] (setting [7]) was greater than 1000 nM throughout.

The values are drawn from patent publication US11564928B1, “Cannabinoid receptor type 2 (CB2) modulators and uses thereof” (Teon Therapeutics, Inc., priority 2020, dated 2023).
